# According to PubChem BioAssay AID588688 (Southern Research Specialized Biocontainment Screening …, 2011):
# The source made the active and inactive calls.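 The calls were made as follows: active = inhibition of 30% or more at any tested concentration; inactive = the rest.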
# Molecular target: M17 leucyl aminopeptidase (Plasmodium falciparum 3D7)
# Assay: Inhibition of P. falciparum M17 aminopeptidase – biochemical, QFRET, dose response (AID 588688)
# Conditions: recombinant PfM17LAP, H-Leu-NHMec fluorogenic substrate cleavage
row,IC50,SMILES
1,6.11 µM,O=C(Cc1cccc2ccccc12)NO
2,10.8 µM,CCn1c2ccccc2c2cc(NC(=O)CSc3nc(C)cc(=O)[nH]3)ccc21
3,0.79 µM,O=C(Cc1ccc2ccccc2c1)NO
4,101 µM,O=C(CSc1nc(O)cc(=O)[nH]1)Nc1ccccc1
5,65.6 µM,COc1ccc(OCCC(=O)NO)cc1
6,17.1 µM,Cc1cc(SCC(=O)Nc2ccccc2C(=O)O)nc2ccccc12
7,33.5 µM,Cc1ccc(NC(=O)CSc2nc(O)cc(=O)n2Cc2ccccc2)cc1
8,58.8 µM,CC1=C(C)CC(C(=O)Nc2nc(-c3cc(C)ccc3C)c(C)s2)C(C(=O)O)C1 (configuration not stated)
9,5.13 µM,COC(=O)c1c(NC(=O)C2CC=CCC2C(=O)O)sc(C)c1-c1ccc(C)cc1 (configuration not stated)
10,17.5 µM,O=C(CSc1nccc(=O)[nH]1)Nc1ccc(N2CCOCC2)cc1
11,25.6 µM,COc1cc(NC(=O)CSc2ccccc2)c(C(=O)O)cc1OC
12,23.6 µM,O=C(CSc1nccc(=O)[nH]1)Nc1ccc(Oc2ccccc2)cc1
13,46.6 µM,CC1=C(C)CC(C(=O)Nc2ccc(Oc3ccc(Cl)cc3)cc2)C(C(=O)O)C1 (configuration not stated)
14,96.9 µM,COc1ccc(-c2nnc(NC(=O)C3CC(C)=C(C)CC3C(=O)O)s2)cc1 (configuration not stated)

# Same assay, conditions: recombinant PfM17LAP, H-Leu-NHMec fluorogenic substrate cleavage; at 100 µM (top of the series)
row,inhibition,SMILES
1,inactive,COC(=O)c1ccccc1NC(=O)c1cc2cc3ccc(C)cc3nc2s1
2,inactive,CC(C)C[C@H](N)C(=O)NO
3,inactive,CC1CCc2sc(C(=O)Nc3cccc4c3C(=O)NC4)cc2C1 (configuration not stated)
4,inactive,O=C(O)c1ccccc1C(=O)Nc1nc2c(s1)CCCC2
5,inactive,COC(=O)c1c(NC(=O)c2ccccc2C(=O)O)sc2c1CCCC2
6,inactive,O=C(CSc1ccccc1)Nc1cccc2c1C(=O)NC2=O
7,inactive,COC(=O)c1cc(OC)c(OC)cc1NC(=O)c1sc2nc(C)ccc2c1N
8,inactive,NC(N)=NCCC[C@H](N)C(=O)NO
9,inactive,O=C(Nc1ccc(Cl)cc1)Nc1ccccc1C(=O)O
10,inactive,COc1cc(NC(=O)c2ccc(-c3ccccc3)cc2)c(C(=O)O)cc1OC
11,inactive,COC(=O)c1ccccc1NC(=O)c1ccc2c(Cl)c3c(nc2c1)CCC3
12,inactive,CCC(C)(C)C1CCc2c(sc(NC(=O)C3CC(C)=C(C)CC3C(=O)O)c2C(=O)OC)C1 (configuration not stated)
13,inactive,N[C@@H](Cc1c[nH]c2ccccc12)C(=O)NO
